# In US12077503B2, “Substituted cyclic amides and their use as herbicides” (FMC CORPORATION, priority 2015, dated 2024):
# Experiments:
# Assay type in all cases: in vivo
# [1] = system: barnyardgrass (Echinochloa crus-galli); assay: Test G Pre-Emergence Protocol; conditions: Echinochloa crus-galli, pre-emergence, 312 h, evaluated after 13 days; for pest or weed control at 15.625 g/ha: 15.625 g ai/ha, read-out: Barnyard grass damage rating (100=total damage to plant; 0=no damage to plant); for pest or weed control at 62.5 g/ha: 62.5 g ai/ha, 100=total damage to plant, 0=no damage to plant, read-out: plant damage rating, Barnyardgrass; for pest or weed control at 250 g/ha: 250 g ai/ha, read-out: Barnyardgrass damage rating (100=total damage to plant; 0=no damage to plant)
# Method in brief: (§1)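 Pots of seeds in standard soil were grown for one day in a glasshouse (24/16 °C day/night, 14 h light, 65% humidity), then sprayed with compound in acetone/water 50:50 with 0.5% Tween 20 at 15.625, 62.5 or 250 g/ha. Damage was scored after 13 days on a 0 (none) to 100 (total) scale.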
# corn (Zea mays) [2] = assay: Test G Pre-Emergence Protocol; conditions: Zea mays, pre-emergence, 312 h, evaluated after 13 days; for plant injury at 15.625 g/ha: 15.625 g ai/ha; for plant injury at 15.625 g/ha / plant injury at 250 g/ha: read-out: Corn damage rating (100=total damage to plant; 0=no damage to plant); for plant injury at 62.5 g/ha: 62.5 g ai/ha, 100=total damage to plant, 0=no damage to plant, read-out: plant damage rating, Corn; for plant injury at 250 g/ha: 250 g ai/ha
# Method in brief: as §1
# [3] = system: giant foxtail (Setaria faberi); assay: Test G Pre-Emergence Protocol; conditions: Setaria faberi, pre-emergence, 312 h, evaluated after 13 days; for pest or weed control at 15.625 g/ha: 15.625 g ai/ha; for pest or weed control at 15.625 g/ha / pest or weed control at 250 g/ha: read-out: Foxtail, Giant damage rating (100=total damage to plant; 0=no damage to plant); for pest or weed control at 62.5 g/ha: 62.5 g ai/ha, 100=total damage to plant, 0=no damage to plant, read-out: plant damage rating, Foxtail, Giant; for pest or weed control at 250 g/ha: 250 g ai/ha
# Method in brief: as §1
# [4] = system: ivy-leaved morning glory (Ipomoea hederacea); assay: Test G Pre-Emergence Protocol; conditions: Ipomoea, pre-emergence, 312 h, evaluated after 13 days; for pest or weed control at 15.625 g/ha: 15.625 g ai/ha, read-out: Morning-glory, Ivy-leaved damage rating (100=total damage to plant; 0=no damage to plant); for pest or weed control at 62.5 g/ha: 62.5 g ai/ha, 100=total damage to plant, 0=no damage to plant, read-out: plant damage rating, Morningglory, Ivy-leaved; for pest or weed control at 250 g/ha: 250 g ai/ha, read-out: Morningglory, Ivy-leaved damage rating (100=total damage to plant; 0=no damage to plant)
# Method in brief: as §1
# [5] = system: redroot pigweed (Amaranthus retroflexus); assay: Test G Pre-Emergence Protocol; conditions: Amaranthus retroflexus, pre-emergence, 312 h, evaluated after 13 days; for pest or weed control at 15.625 g/ha: 15.625 g ai/ha; for pest or weed control at 15.625 g/ha / pest or weed control at 250 g/ha: read-out: Pigweed, Redroot damage rating (100=total damage to plant; 0=no damage to plant); for pest or weed control at 62.5 g/ha: 62.5 g ai/ha, 100=total damage to plant, 0=no damage to plant, read-out: plant damage rating, Pigweed, Redroot; for pest or weed control at 250 g/ha: 250 g ai/ha
# Method in brief: as §1
# [6] = system: velvetleaf (Abutilon theophrasti); assay: Test G Pre-Emergence Protocol; conditions: Abutilon theophrasti, pre-emergence, 312 h, evaluated after 13 days; for pest or weed control at 15.625 g/ha: 15.625 g ai/ha; for pest or weed control at 15.625 g/ha / pest or weed control at 250 g/ha: read-out: Velvetleaf damage rating (100=total damage to plant; 0=no damage to plant); for pest or weed control at 62.5 g/ha: 62.5 g ai/ha, 100=total damage to plant, 0=no damage to plant, read-out: plant damage rating, Velvetleaf; for pest or weed control at 250 g/ha: 250 g ai/ha
# Method in brief: as §1
# [7] = system: barnyardgrass (Echinochloa crus-galli); assay: Test G Post-Emergence Protocol; conditions: Echinochloa crus-galli, post-emergence, 312 h; for pest or weed control at 15.625 g/ha: 15.625 g ai/ha, evaluated after 13 days (100=total damage to plant; 0=no damage to plant), read-out: Barnyardgrass damage rating; for pest or weed control at 62.5 g/ha: 62.5 g ai/ha, read-out: Barnyardgrass damage rating (100=total damage to plant; 0=no damage to plant); for pest or weed control at 62.5 g/ha / pest or weed control at 250 g/ha: evaluated after 13 days; for pest or weed control at 250 g/ha: 250 g ai/ha, read-out: damage to plant, Barnyardgrass (100=total damage to plant; 0=no damage to plant)
# Method in brief: (§2)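 Foliar application was made 8 days after sowing, using an aqueous spray of the active in acetone/water (50:50) with 0.5% Tween 20, at doses of 15.625, 62.5 or 250 g/ha. Injury was assessed 13 days later, where 100 meant the plant was fully damaged.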
# corn (Zea mays) [8] = assay: Test G Post-Emergence Protocol; conditions: Zea mays, post-emergence, 312 h; for plant injury at 15.625 g/ha: 15.625 g ai/ha, evaluated after 13 days (100=total damage to plant; 0=no damage to plant), read-out: Corn damage rating; for plant injury at 62.5 g/ha: 62.5 g ai/ha, read-out: Corn damage rating (100=total damage to plant; 0=no damage to plant); for plant injury at 62.5 g/ha / plant injury at 250 g/ha: evaluated after 13 days; for plant injury at 250 g/ha: 250 g ai/ha, read-out: damage to plant, Corn (100=total damage to plant; 0=no damage to plant)
# Method in brief: as §2
# [9] = system: giant foxtail (Setaria faberi); assay: Test G Post-Emergence Protocol; conditions: Setaria faberi, post-emergence, 312 h; for pest or weed control at 15.625 g/ha: 15.625 g ai/ha, evaluated after 13 days (100=total damage to plant; 0=no damage to plant), read-out: Foxtail, Giant damage rating; for pest or weed control at 62.5 g/ha: 62.5 g ai/ha, read-out: Foxtail, Giant damage rating (100=total damage to plant; 0=no damage to plant); for pest or weed control at 62.5 g/ha / pest or weed control at 250 g/ha: evaluated after 13 days; for pest or weed control at 250 g/ha: 250 g ai/ha, read-out: damage to plant, Foxtail, Giant (100=total damage to plant; 0=no damage to plant)
# Method in brief: as §2
# [10] = system: ivy-leaved morning glory (Ipomoea hederacea); assay: Test G Post-Emergence Protocol; conditions: Ipomoea, post-emergence, 312 h; for pest or weed control at 15.625 g/ha: 15.625 g ai/ha, evaluated after 13 days (100=total damage to plant; 0=no damage to plant), read-out: Morningglory, Ivy-leaved damage rating; for pest or weed control at 62.5 g/ha: 62.5 g ai/ha, read-out: Morningglory, Ivy-leaved damage rating (100=total damage to plant; 0=no damage to plant); for pest or weed control at 62.5 g/ha / pest or weed control at 250 g/ha: evaluated after 13 days; for pest or weed control at 250 g/ha: 250 g ai/ha, read-out: damage to plant, Morningglory, Ivy-leaved (100=total damage to plant; 0=no damage to plant)
# Method in brief: as §2
# [11] = system: redroot pigweed (Amaranthus retroflexus); assay: Test G Post-Emergence Protocol; conditions: Amaranthus retroflexus, post-emergence, 312 h; for pest or weed control at 15.625 g/ha: 15.625 g ai/ha, evaluated after 13 days (100=total damage to plant; 0=no damage to plant), read-out: Pigweed, Redroot damage rating; for pest or weed control at 62.5 g/ha: 62.5 g ai/ha, read-out: Pigweed, Redroot damage rating (100=total damage to plant; 0=no damage to plant); for pest or weed control at 62.5 g/ha / pest or weed control at 250 g/ha: evaluated after 13 days; for pest or weed control at 250 g/ha: 250 g ai/ha, read-out: damage to plant, Pigweed, Redroot (100=total damage to plant; 0=no damage to plant)
# Method in brief: as §2
# [12] = system: velvetleaf (Abutilon theophrasti); assay: Test G Post-Emergence Protocol; conditions: Abutilon theophrasti, post-emergence, 312 h; for pest or weed control at 15.625 g/ha: 15.625 g ai/ha, evaluated after 13 days (100=total damage to plant; 0=no damage to plant), read-out: Velvetleaf damage rating; for pest or weed control at 62.5 g/ha: 62.5 g ai/ha, read-out: Velvetleaf damage rating (100=total damage to plant; 0=no damage to plant); for pest or weed control at 62.5 g/ha / pest or weed control at 250 g/ha: evaluated after 13 days; for pest or weed control at 250 g/ha: 250 g ai/ha, read-out: damage to plant, Velvetleaf (100=total damage to plant; 0=no damage to plant)
# Method in brief: as §2
SMILES,pest or weed control at 15.625 g/ha [1] [%],pest or weed control at 62.5 g/ha [1] [%],pest or weed control at 250 g/ha [1] [%],plant injury at 15.625 g/ha (corn (Zea mays) [2]) [%],plant injury at 62.5 g/ha (corn (Zea mays) [2]) [%],plant injury at 250 g/ha (corn (Zea mays) [2]) [%],pest or weed control at 15.625 g/ha [3] [%],pest or weed control at 62.5 g/ha [3] [%],pest or weed control at 250 g/ha [3] [%],pest or weed control at 15.625 g/ha [4] [%],pest or weed control at 62.5 g/ha [4] [%],pest or weed control at 250 g/ha [4] [%],pest or weed control at 15.625 g/ha [5] [%],pest or weed control at 62.5 g/ha [5] [%],pest or weed control at 250 g/ha [5] [%],pest or weed control at 15.625 g/ha [6] [%],pest or weed control at 62.5 g/ha [6] [%],pest or weed control at 250 g/ha [6] [%],pest or weed control at 15.625 g/ha [7] [%],pest or weed control at 62.5 g/ha [7] [%],also measured
Cc1nc(F)ccc1[C@@H]1CN(C)C(=O)[C@H]1C(=O)Nc1cccc(F)c1F (racemic) [Compound 1492],0,20,80,0,0,0,0,20,80,0,0,0,0,0,0,0,0,0,0,30,pest or weed control at 250 g/ha [7]: 60%; plant injury at 15.625 g/ha (corn (Zea mays) [8]): 0%; plant injury at 62.5 g/ha (corn (Zea mays) [8]): 0%; plant injury at 250 g/ha (corn (Zea mays) [8]): 0%; pest or weed control at 15.625 g/ha [9]: 0%; pest or weed control at 62.5 g/ha [9]: 40%; pest or weed control at 250 g/ha [9]: 60%; pest or weed control at 15.625 g/ha [10]: 0%; pest or weed control at 62.5 g/ha [10]: 0%; pest or weed control at 250 g/ha [10]: 0%; pest or weed control at 15.625 g/ha [11]: 0%; pest or weed control at 62.5 g/ha [11]: 0%; pest or weed control at 250 g/ha [11]: 0%; pest or weed control at 15.625 g/ha [12]: 0%; pest or weed control at 62.5 g/ha [12]: 0%; pest or weed control at 250 g/ha [12]: 20%
CCc1nc(NC(=O)[C@@H]2C(=O)N(C)C[C@H]2c2ccc(C(F)(F)F)cc2)n[nH]1 (racemic) [Compound 1610],0,0,0,0,0,0,0,0,0,0,0,0,0,0,0,0,0,0,0,0,pest or weed control at 250 g/ha [7]: 0%; plant injury at 15.625 g/ha (corn (Zea mays) [8]): 0%; plant injury at 62.5 g/ha (corn (Zea mays) [8]): 0%; plant injury at 250 g/ha (corn (Zea mays) [8]): 0%; pest or weed control at 15.625 g/ha [9]: 0%; pest or weed control at 62.5 g/ha [9]: 0%; pest or weed control at 250 g/ha [9]: 0%; pest or weed control at 15.625 g/ha [10]: 0%; pest or weed control at 62.5 g/ha [10]: 0%; pest or weed control at 250 g/ha [10]: 0%; pest or weed control at 15.625 g/ha [11]: 0%; pest or weed control at 62.5 g/ha [11]: 0%; pest or weed control at 250 g/ha [11]: 0%; pest or weed control at 15.625 g/ha [12]: 0%; pest or weed control at 62.5 g/ha [12]: 0%; pest or weed control at 250 g/ha [12]: 0%
